According to patent US8598202B2, “Aryl-hydroxyethylamino-pyrimidines and triazines as modulators of fatty acid amide hydrolase” (Janssen Pharmaceutica NV, priority 2008, dated 2013):
Where a name gives a salt, the structure may show the parent alone. Read-outs that look alike come from different tables or passages of the source.

Columns and labels:
Rat FAAH-1 = biological target: T1, Rat FAAH-1 (Rattus norvegicus, UniProt P97612); test: Assay Method 2: rat FAAH-1 assay, 3H-anandamide hydrolysis in homogenate of SK-N-MC cells transfected with rat FAAH
T1 sequence (P97612 1-579): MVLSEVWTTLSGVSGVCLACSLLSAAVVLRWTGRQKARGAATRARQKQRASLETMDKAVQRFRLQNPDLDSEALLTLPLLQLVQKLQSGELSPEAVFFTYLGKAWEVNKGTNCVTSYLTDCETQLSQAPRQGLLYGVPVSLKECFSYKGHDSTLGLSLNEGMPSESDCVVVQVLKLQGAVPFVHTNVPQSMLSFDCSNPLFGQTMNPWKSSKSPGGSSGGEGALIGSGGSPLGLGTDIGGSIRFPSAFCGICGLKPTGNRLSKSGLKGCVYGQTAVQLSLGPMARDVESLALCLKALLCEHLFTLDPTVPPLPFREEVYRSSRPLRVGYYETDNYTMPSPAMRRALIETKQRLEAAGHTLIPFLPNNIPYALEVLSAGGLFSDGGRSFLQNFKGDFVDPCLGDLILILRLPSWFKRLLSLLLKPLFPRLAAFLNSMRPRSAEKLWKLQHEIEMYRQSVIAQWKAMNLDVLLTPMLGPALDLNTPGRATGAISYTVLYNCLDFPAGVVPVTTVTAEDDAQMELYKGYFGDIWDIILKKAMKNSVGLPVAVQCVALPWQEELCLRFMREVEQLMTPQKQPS
Protocol: The assay mixture consisted of 50 μL of the cell homogenate, 10 μL of the test compound, and 40 μL of anandamide [1-^3H-ethanolamine] (^3H-AEA, Perkin-Elmer, 10.3 Ci/mmol), which was added last, for a final tracer concentration of 80 nM. The reaction mixture was incubated at rt for 1 h. During the incubation, 96-well Multiscreen filter plates (catalog number MAFCNOB50; Millipore, Bedford, Mass., USA) were loaded with 25 μL of activated charcoal (Multiscreen column loader, catalog number MACL09625, Millipore) and washed once with 100 μL of MeOH. […] After the 1 h incubation, 60 μL of the reaction mixture were transferred to the charcoal plates, which were then assembled on top of the DYNEX plates using Centrifuge Alignment Frames (catalog number MACF09604, Millipore). The unbound labeled ethanolamine was centrifuged through to the bottom plate (5 min at 2000 rpm), which was preloaded with the scintillant, as described above. The plates were sealed and left at rt for 1 h before counting on a Hewlett Packard TopCount.

FAAH = biological target: T2, FAAH (Homo sapiens, UniProt O00519); test: Assay Method 1: FAAH assay, 3H-anandamide hydrolysis in homogenate of T84 cells or SK-N-MC cells transfected with human FAAH
T2 sequence (O00519 1-579): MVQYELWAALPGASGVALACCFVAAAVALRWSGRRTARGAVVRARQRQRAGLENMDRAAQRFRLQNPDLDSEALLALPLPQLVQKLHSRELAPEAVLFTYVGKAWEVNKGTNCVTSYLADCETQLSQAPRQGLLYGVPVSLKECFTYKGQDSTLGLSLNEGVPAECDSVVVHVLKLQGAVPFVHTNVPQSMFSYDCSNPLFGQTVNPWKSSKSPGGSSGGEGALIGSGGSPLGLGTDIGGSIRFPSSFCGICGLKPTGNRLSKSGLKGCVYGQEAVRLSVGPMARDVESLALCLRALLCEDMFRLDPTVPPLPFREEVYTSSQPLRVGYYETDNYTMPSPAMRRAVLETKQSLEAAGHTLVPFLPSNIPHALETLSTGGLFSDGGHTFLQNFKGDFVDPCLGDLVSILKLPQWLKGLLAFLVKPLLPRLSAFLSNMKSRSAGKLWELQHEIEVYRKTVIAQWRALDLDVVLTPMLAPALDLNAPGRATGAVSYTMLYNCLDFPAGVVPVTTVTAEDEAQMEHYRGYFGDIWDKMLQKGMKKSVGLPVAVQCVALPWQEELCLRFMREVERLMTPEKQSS

[1] = read-out: Assay 1 IC50, Table 2, Comparative Examples, human FAAH

Question: Which results are given for CCc1ccc(-c2cc(NCC(O)c3ccccc3)ncn2)cc1 (centres unmarked) [Example 6, 2-{[6-(4-Ethylphenyl)pyrimidin-4-yl]amino}-1-phenylethanol]?
Answer: IC50 (Rat FAAH-1): 233 nM; IC50 (FAAH): 33 nM

Question: What does the source list for OC(CNc1cc(-c2c(C(F)(F)F)cccc2C(F)(F)F)ncn1)c1ccccc1 (centres unmarked) [CE1, 2-[6-(2,6-Bis-trifluoromethyl-phenyl)-pyrimidin-4-ylamino]-1-phenyl-ethanol, reference compound]?
Answer: IC50 (Rat FAAH-1): > 10000 nM; IC50 (FAAH): > 10000 nM

Question: How did the IC50 (Rat FAAH-1) turn out when O[C@@H](CNc1cc(-c2ccc3c(c2)OC(F)(F)O3)ncn1)c1ccccc1 [Example 183, (1R)-2-{[6-(2,2-Difluoro-1,3-benzodioxol-5-yl)pyrimidin-4-yl]amino}-1-phenylethanol] was run?
Answer: 89 nM

Question: What about the IC50 (FAAH) of the same compound?
Answer: 36 nM

Question: For OC(CNc1cc(-c2ccc3c(c2)OCO3)ncn1)c1ccccc1 (centres unmarked) [Example 232, 2-(6-Benzo[1,3]dioxol-5-yl-pyrimidin-4-ylamino)-1-phenyl-ethanol], which IC50 (Rat FAAH-1) is on record?
Answer: 1000 nM

Question: And the IC50 (FAAH)?
Answer: 150 nM

Question: How did the IC50 (Rat FAAH-1) turn out when O[C@@H](CNc1cc(-c2ccc3[nH]ccc3c2)ncn1)c1ccccc1 [Example 85, (1R)-2-{[6-(1H-Indol-5-yl)pyrimidin-4-yl]amino}-1-phenylethanol trifluoroacetic acid salt] was run?
Answer: 5000 nM

Question: And the IC50 (FAAH)?
Answer: 18 nM

Question: What does the source list for CS(=O)(=O)c1ccc(-c2cc(NC[C@H](O)c3ccccc3)ncn2)cc1 [Example 66, (1R)-2-({6-[4-(Methylsulfonyl)phenyl]pyrimidin-4-yl}amino)-1-phenylethanol]?
Answer: IC50 (Rat FAAH-1): 140 nM; IC50 (FAAH): 73 nM

Question: With OC(CNc1cc(-c2ccc(OC(F)(F)F)cc2)ncn1)c1ccc2c(c1)OC(F)(F)O2 (centres unmarked) [Example 122, 1-(2,2-Difluoro-1,3-benzodioxol-5-yl)-2-[(6-{4-[(trifluoromethyl)oxy]phenyl}pyrimidin-4-yl)amino]ethanol] as the compound, how does the IC50 (Rat FAAH-1) read?
Answer: 19 nM

Question: What about the IC50 (FAAH) of the same compound?
Answer: 13 nM

Question: With CCOc1cccc(-c2cc(NC[C@H](O)c3ccccc3)ncn2)c1 [Example 97, (1R)-2-{[6-(3-Ethoxyphenyl)pyrimidin-4-yl]amino}-1-phenylethanol] as the compound, how does the IC50 (FAAH) read?
Answer: 580 nM

Question: With O[C@@H](CNc1cc(-c2ccc(C(F)(F)F)c(Cl)c2)nc(N2CCC2)n1)c1ccccc1 [Example 161, (1R)-2-({2-Azetidin-1-yl-6-[3-chloro-4-(trifluoromethyl)phenyl]pyrimidin-4-yl}amino)-1-Phenylethanol trifluoroacetic acid salt] as the compound, how does the IC50 (Rat FAAH-1) read?
Answer: 580 nM

Question: Which IC50 (FAAH; [1]) does the source give for OC(CNc1cc(-c2ccccc2)ncn1)c1ccccc1 (centres unmarked) [CE3, 1-Phenyl-2-(6-phenyl-pyrimidin-4-ylamino)-ethanol, reference compound] here?
Answer: > 10000 nM

Question: How did the IC50 (FAAH) turn out when CCCOc1cccc(-c2cc(NC[C@H](O)c3ccccc3)ncn2)c1 [Example 98, (1R)-1-Phenyl-2-{[6-(3-propoxyphenyl)pyrimidin-4-yl]amino}ethanol] was run?
Answer: 850 nM

Question: Which IC50 (FAAH) does the source give for CS(=O)(=O)c1nc(NC[C@H](O)c2ccccc2)cc(-c2ccc(C(F)(F)F)c(Cl)c2)n1 [Example 138, (1R)-2-({6-[3-Chloro-4-(trifluoromethyl)phenyl]-2-(methylsulfonyl)pyrimidin-4-yl}amino)-1-phenylethanol] here?
Answer: 371 nM

Question: O[C@@H](CNc1cc(-c2cnn(Cc3ccccc3)c2)ncn1)c1ccccc1 [Example 74, (1R)-2-{[6-(1-Benzyl-1H-pyrazol-4-yl)pyrimidin-4-yl]amino}-1-phenylethanol] was tested. Which IC50 (FAAH) did it give?
Answer: 101 nM

Question: Which IC50 (FAAH) does the source give for COc1ccc(-c2cc(NCC(O)c3ccccc3)ncn2)cc1 (centres unmarked) [Example 147, 2-({6-[4-(Methyloxy)phenyl]pyrimidin-4-yl}amino)-1-phenylethanol] here?
Answer: 205 nM

Question: O=S(=O)(NC1CC1)c1ccc(-c2cc(NC[C@H](O)c3ccccc3)ncn2)cc1 [Example 67, N-Cyclopropyl-4-(6-{[(2R)-2-hydroxy-2-phenylethyl]amino}pyrimidin-4-yl)benzenesulfonamide] was tested. Which IC50 (FAAH) did it give?
Answer: 20 nM

Question: Oc1ccc(C(O)CNc2cc(-c3ccc(OC(F)(F)F)cc3)ncn2)cc1 (centres unmarked) [Example 110, 4-{1-Hydroxy-2-[(6-{4-[(trifluoromethyl)oxy]phenyl}pyrimidin-4-yl)amino]ethyl}phenol] was tested. Which IC50 (FAAH) did it give?
Answer: 5000 nM

Question: How did the IC50 (FAAH) turn out when CCOc1ccc(-c2cc(NC[C@H](O)c3ccccc3)ncn2)c(C)c1 [Example 154, (1R)-2-{[6-(4-Ethoxy-2-methylphenyl)pyrimidin-4-yl]amino}-1-phenylethanol trifluoroacetic acid salt] was run?
Answer: 65 nM

Question: OC(CNc1cc(-c2ccc(Oc3ccccc3)cc2)ncn1)c1ccccc1 (centres unmarked) [Example 13, 1-Phenyl-2-({6-[4-(phenyloxy)phenyl]pyrimidin-4-yl}amino)ethanol] was tested. Which IC50 (FAAH) did it give?
Answer: 35 nM

Question: Which IC50 (FAAH) does the source give for OC(CNc1cc(-c2cccc(OC(F)(F)F)c2)ncn1)c1ccccc1 (centres unmarked) [Example 149, 1-Phenyl-2-[(6-{3-[(trifluoromethyl)oxy]phenyl}pyrimidin-4-yl)amino]ethanol] here?
Answer: 412 nM

Question: With CCCCOc1ccc(-c2cc(NC[C@H](O)c3ccccc3)ncn2)cc1 [Example 34, (1R)-2-{[6-(4-Butoxyphenyl)pyrimidin-4-yl]amino}-1-phenylethanol trifluoroacetic acid salt] as the compound, how does the IC50 (FAAH) read?
Answer: 500 nM

Question: With Nc1cccc(-c2cc(NCC(O)c3ccccc3)ncn2)c1 (centres unmarked) [Example 240, 2-[6-(3-Amino-phenyl)-pyrimidin-4-ylamino]-1-phenyl-ethanol] as the compound, how does the IC50 (FAAH) read?
Answer: > 10000 nM

Question: For Cc1cccc(-c2cc(NCC(O)c3ccccc3)ncn2)c1 (centres unmarked) [Example 148, 2-{[6-(3-Methylphenyl)pyrimidin-4-yl]amino}-1-phenylethanol], which IC50 (FAAH) is on record?
Answer: 3000 nM

Question: With OC(CNc1cc(-c2ccccc2)ncn1)c1ccccc1 (centres unmarked) [Example 243, 1-Phenyl-2-(6-phenyl-pyrimidin-4-ylamino)-ethanol] as the compound, how does the IC50 (FAAH) read?
Answer: > 10000 nM

Question: How did the IC50 (FAAH) turn out when COc1ccc(-c2cc(NCC(O)c3ccccc3)ncn2)cc1OC (centres unmarked) [Example 229, 2-[6-(3,4-Dimethoxy-phenyl)-pyrimidin-4-ylamino]-1-phenyl-ethanol] was run?
Answer: 408 nM

Question: How did the IC50 (FAAH) turn out when OC(CNc1cc(-c2ccc(OC(F)(F)F)cc2)ncn1)c1ccccn1 (centres unmarked) [Example 123, 1-Pyridin-2-yl-2-[(6-{4-[(trifluoromethyl)oxy]phenyl}pyrimidin-4-yl)amino]ethanol] was run?
Answer: 700 nM

Question: Which IC50 (FAAH) does the source give for O[C@@H](CNc1cc(-c2cccc(OCC(F)(F)F)c2)ncn1)c1ccccc1 [Example 25, (1R)-1-Phenyl-2-[(6-{3-[(2,2,2-trifluoroethyl)oxy]phenyl}pyrimidin-4-yl)amino]ethanol] here?
Answer: 390 nM

Question: With COc1cc(OC(F)(F)F)ccc1-c1cc(NC[C@H](O)c2ccccc2)ncn1 [Example 153, (1R)-2-({6-[2-Methoxy-4-(trifluoromethoxy)phenyl]pyrimidin-4-yl}amino)-1-phenylethanol trifluoroacetic acid salt] as the compound, how does the IC50 (FAAH) read?
Answer: 303 nM

Question: With O=Cc1cccc(-c2cc(NC[C@H](O)c3ccccc3)ncn2)c1 [Example 23, 3-(6-{[(2R)-2-Hydroxy-2-phenylethyl]amino}pyrimidin-4-yl)benzaldehyde] as the compound, how does the IC50 (FAAH) read?
Answer: 5000 nM

Question: For Cc1cc(-c2cc(NC[C@H](O)c3ccccc3)ncn2)cnc1F [Example 75, (1R)-2-{[6-(6-Fluoro-5-methylpyridin-3-yl)pyrimidin-4-yl]amino}-1-phenylethanol], which IC50 (Rat FAAH-1) is on record?
Answer: > 10000 nM

Question: Which IC50 (FAAH) does the source give for OC(CNc1cc(-c2cccc(Cl)c2)ncn1)c1ccccc1 (centres unmarked) [Example 9, 2-{[6-(3-Chlorophenyl)pyrimidin-4-yl]amino}-1-Phenylethanol] here?
Answer: 467 nM

Question: How did the IC50 (FAAH; [1]) turn out when Nc1cccc(-c2cc(NCC(O)c3ccccc3)ncn2)c1 (centres unmarked) [CE8, 2-[6-(3-Amino-phenyl)-pyrimidin-4-ylamino]-1-phenyl-ethanol, reference compound] was run?
Answer: > 10000 nM

Question: Which IC50 (FAAH) does the source give for Cc1cc(-c2cc(NC[C@H](O)c3ccccc3)ncn2)cc(C)c1OC(C)C [Example 52, (1R)-2-({6-[3,5-Dimethyl-4-(1-methylethoxy)phenyl]pyrimidin-4-yl}amino)-1-phenylethanol trifluoroacetic acid salt] here?
Answer: 1400 nM

Question: How did the IC50 (FAAH) turn out when C[S+]([O-])c1nc(NC[C@H](O)c2ccccc2)cc(-c2ccc(C(F)(F)F)c(Cl)c2)n1 (stereo partly drawn) [Example 139, (1R)-2-({6-[3-Chloro-4-(trifluoromethyl)phenyl]-2-(methylsulfinyl)pyrimidin-4-yl}amino)-1-phenylethanol] was run?
Answer: 2000 nM

Question: Which IC50 (FAAH) does the source give for CC(O)(CNc1cc(-c2ccc(C(F)(F)F)c(Cl)c2)ncn1)c1ccccc1 (centres unmarked) [Example 166, 1-({6-[3-Chloro-4-(trifluoromethyl)phenyl]pyrimidin-4-yl}amino)-2-Phenylpropan-2-ol] here?
Answer: 3000 nM
